# Values quoted from earlier work as cited in patent publication US20200114015A1, “Novel Alpha-Hydroxy Carboxylic Acid And Derivatives And Other GRAS- Based Prodrugs Of Gamma-Hydroxybutyrate (GHB) And Uses Thereof” (priority 2017, published 2020).
# Details: GHB marketed as Xyrem
compound,measurement,value
"O=C(O)CCCO [GHB, gamma-hydroxybutyrate]",bioavailability,~25%
same,half life,30 to 60 min
